Experimental findings from PubChem BioAssay AID1259411 (Chemical Carcinogenesis Research Information System (CCRIS), 2018) are described below.

This data set has as its system rodent carcinogenicity bioassays, tumor incidence. In words: CCRIS carcinogenicity studies. The gist of the method:
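Archive of carcinogenicity, mutagenicity, tumor promotion and tumor inhibition results drawn from journals, NCI reports and other sources, expert-reviewed; covers 1985-2011 and is no longer updated.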

The source made the active and inactive calls. The rule behind the calls is not given here.

With `O=C1C2(Cl)C3(Cl)C4(Cl)C(Cl)(Cl)C5(Cl)C3(Cl)C1(Cl)C5(Cl)C24Cl` (centres undefined), the carcinogen call was “active; positive” (Species: MOUSE, Strain/Sex: B6C3F1/FEMALE, Route: ORAL, Dose: 20, 40 MG/KG IN DIET, TWA, Tumor Site: Type of Lesion: LIVER: HEPATOCELLULAR CARCINOMA); “active; positive” (Species: MOUSE, Strain/Sex: B6C3F1/MALE, Route: ORAL, Dose: 20, 23 MG/KG IN DIET, TWA, Tumor Site: Type of Lesion: LIVER: HEPATOCELLULAR CARCINOMA); “active; positive” (Species: RAT, Strain/Sex: OSBORNE-MENDEL/FEMALE, Route: ORAL, Dose: 18, 26 MG/KG IN DIET, TWA, Tumor Site: Type of Lesion: LIVER: HEPATOCELLULAR CARCINOMA); “active; positive” (Species: RAT, Strain/Sex: OSBORNE-MENDEL/MALE, Route: ORAL, Dose: 8, 24 MG/KG IN DIET, TWA, Tumor Site: Type of Lesion: LIVER: HEPATOCELLULAR CARCINOMA).

Turning to `O=[N+]([O-])c1ccc2ccc3c4ccccc4cc4ccc1c2c43`, the carcinogen call (Species: MOUSE, Strain/Sex: B6C3F1/MALE, Route: INTRAPERITONEAL, Dose: 0, 400 NMOL IN 35 µL DMSO ON DAYS 1 (1/7 TOTAL DOSE), 8 (2/7 TOTAL DOSE), AND 15 (4/7 TOTAL DOSE) AFTER BIRTH (STUDY DUR) is “inactive; negative” and the carcinogen call (Species: RAT, Strain/Sex: F344/MALE, Route: SUBCUTANEOUS, Dose: 0, 500, 1000 UG SUSPENDED IN BEESWAX/TRICAPRYLIN (1:1) ONCE (STUDY DURATION: LIFETIME), Dose: 0, 500, 1000 UG SUSPENDED IN BEESWAX/TRICAPRYLIN (1:1) ONCE (STUDY DURATION: LIFETIME)) is “inactive; negative”.

Regarding `O=NC(=O)CCNCCO`, under “Species: RAT, Strain/Sex: F344/FEMALE, Route: ORAL, Dose: 0, 50 MG/L DRINKING WATER 5 D/WK FOR 50 WK (TOTAL DOSE 250 MG) (STUDY DURATION: LIFESPAN), Tumor Site: Type of Lesion: ESOPHAGUS: CARCINOMA, PAPILLOMA, TONGUE: CARCINOMA, PAPILLOMA”, the carcinogen call is “active; positive”.

Turning to `COc1ccc(OC)c(N=Nc2c(O)ccc3ccccc23)c1`, under “Species: MOUSE, Strain/Sex: C57 X 1F F1, Route: BLADDER IMPLANT, Dose: 0, 12.5% SUSPENSION IN PARAFFIN WAX (STUDY DURATION: 40 WK), Tumor Site: Type of Lesion: BLADDER: CARCINOMA”, the carcinogen call was “active; positive”.

Regarding `COC(=O)Nc1nc2ccccc2[nH]1`, the carcinogen call reads like this: (Species: Mouse, Strain/Sex: CD-1/Female (80/sex/dose), Route: Oral, Dose: 0, 500, 1500, 7500 ppm in feed for 2 yr, Dose: 0, 500, 1500, 7500 ppm in feed for 2 yr, Tumor Site: Type of Lesion: Liver: Hepatocellular adenoma (0/68, 5/62, 5/66, 3/71), Hepatocellular carcinoma (2/68, 4/62, 15/66, 12/71), Combined (2, Tumor Site: Type of Lesion: Liver: Hepatocellular adenoma (0/68, 5/62, 5/66, 3/71), Hepatocellular carcinoma (2/68, 4/62, 15/66, 12/71), Combined (2) “active; positive: purity 99.3%”; (Species: Mouse, Strain/Sex: CD-1/Male (80/sex/dose); Route: Oral; Dose: 0; 500; 1500; 7500 ppm in feed for 2 yr except for highest dose where animals terminated at week 73 with 29% survival); Dose: 0; 500; 1500; 7500 ppm in feed for 2 yr except for highest dose where animals terminated at week 73 with 29% survival)) “inactive; negative: purity 99.3%”.

As to `Cc1c(N(C)C)c(=O)n(-c2ccccc2)n1C`, the carcinogen call by setting is: (Species: MOUSE, Strain/Sex: B6C3F1/FEMALE, Route: ORAL, Dose: 0, 0.04, 0.08% IN DRINKING WATER FOR 100 WK (STUDY DURATION: 104 WK), Dose: 0, 0.04, 0.08% IN DRINKING WATER FOR 100 WK (STUDY DURATION: 104 WK)) “inactive; negative”; (Species: MOUSE, Strain/Sex: B6C3F1/MALE, Route: ORAL, Dose: 0, 0.04, 0.08% IN DRINKING WATER FOR 100 WK (STUDY DURATION: 104 WK), Dose: 0, 0.04, 0.08% IN DRINKING WATER FOR 100 WK (STUDY DURATION: 104 WK)) “inactive; negative”.

`COC(=O)c1ccc(C)cc1C1=NC(C)(C(C)C)C(=O)N1` (centres undefined) (tested in a mixture with another compound): the carcinogen call is “inactive; negative” (Species: Mouse, Strain/Sex: CD-1/Female (65/Group), Route: Oral, Dose: 0, 130, 525, 2100 ppm 94.2% imazamethabenz-methyl in diet for 18 mo, study duration 18 mo, Dose: 0, 130, 525, 2100 ppm 94.2% imazamethabenz-methyl in diet for 18 mo, study duration 18 mo); “inactive; negative” (Species: Mouse, Strain/Sex: CD-1/Male (65/Group), Route: Oral, Dose: 0, 130, 525, 2100 ppm 94.2% imazamethabenz-methyl in diet for 18 mo, study duration 18 mo, Dose: 0, 130, 525, 2100 ppm 94.2% imazamethabenz-methyl in diet for 18 mo, study duration 18 mo); “inactive; negative” (Species: Rat, Strain/Sex: Crl:CD(SD)BR/Female (65/Group), Route: Oral, Dose: 0, 240, 1000, 4000 ppm 94.2% imazamethabenz-methyl in diet for 24 mo, study duration 24 mo, Dose: 0, 240, 1000, 4000 ppm 94.2% imazamethabenz-methyl in diet for 24 mo, study duration 24 mo); “inactive; negative” (Species: Rat, Strain/Sex: Crl:CD(SD)BR/Male (65/Group), Route: Oral, Dose: 0, 240, 1000, 4000 ppm 94.2% imazamethabenz-methyl in diet for 24 mo, study duration 24 mo, Dose: 0, 240, 1000, 4000 ppm 94.2% imazamethabenz-methyl in diet for 24 mo, study duration 24 mo).

Turning to `C=CN(CC)N=O`, the carcinogen call is, setting by setting: (Species: HAMSTER, Strain/Sex: SYRIAN/FEMALE, Route: SUBCUTANEOUS, Dose: 0.63-5 MG/KG IN OLIVE OIL 1/WK FOR LIFE, Tumor Site: Type of Lesion: NASAL CAVITY: PAPILLOMA, EPIDERMOID CARCINOMA, ADENOCARCINOMA, LARYNX: PAPILLOMA, EPIDERMOID CARCINOMA, TRACHEA: PAPILLO, Tumor Site: Type of Lesion: NASAL CAVITY: PAPILLOMA, EPIDERMOID CARCINOMA, ADENOCARCINOMA, LARYNX: PAPILLOMA, EPIDERMOID CARCINOMA, TRACHEA: PAPILLO) “active; positive”; (Species: HAMSTER, Strain/Sex: SYRIAN/MALE, Route: SUBCUTANEOUS, Dose: 0.63-5 MG/KG IN OLIVE OIL 1/WK FOR LIFE, Tumor Site: Type of Lesion: NASAL CAVITY: PAPILLOMA, EPIDERMOID CARCINOMA, ADENOCARCINOMA, LARYNX: PAPILLOMA, EPIDERMOID CARCINOMA, TRACHEA: PAPILLO, Tumor Site: Type of Lesion: NASAL CAVITY: PAPILLOMA, EPIDERMOID CARCINOMA, ADENOCARCINOMA, LARYNX: PAPILLOMA, EPIDERMOID CARCINOMA, TRACHEA: PAPILLO) “active; positive”; (Species: RAT, Route: INTRAVENOUS, Dose: 10.0 MG/KG 1/WK(MEAN TOTAL DOSE 0.25 G/KG), Tumor Site: Type of Lesion: ESOPHAGUS) “active; positive”; (Species: RAT, Route: ORAL, Dose: 1.30, 2.50 MG/KG 7/WK (MEAN TOTAL DOSE 0.23; 0.42 G/KG), Dose: 1.30, 2.50 MG/KG 7/WK (MEAN TOTAL DOSE 0.23; 0.42 G/KG), Tumor Site: Type of Lesion: ESOPHAGUS) “active; positive”.

Consider `CC[C@H]1OC(=O)[C@H](C)[C@@H](O[C@H]2C[C@@](C)(OC)[C@@H](O)[C@H](C)O2)[C@H](C)[C@@H](O[C@@H]2O[C@H](C)C[C@H](N(C)C)[C@H]2O)[C@](C)(O)C[C@@H](C)C(=O)[C@H](C)[C@@H](O)[C@]1(C)O`, for which the carcinogen call (Species: MOUSE, Strain/Sex: B6C3F1/FEMALE, Route: ORAL, Dose: 0, 2500, 5000 PPM IN FEED FOR 103 WK (STUDY DURATION: 104 WK), Dose: 0, 2500, 5000 PPM IN FEED FOR 103 WK (STUDY DURATION: 104 WK)) is “inactive; negative”; the carcinogen call (Species: MOUSE, Strain/Sex: B6C3F1/MALE, Route: ORAL, Dose: 0, 2500, 5000 PPM IN FEED FOR 103 WK (STUDY DURATION: 104 WK), Dose: 0, 2500, 5000 PPM IN FEED FOR 103 WK (STUDY DURATION: 104 WK)) is “inactive; negative”; the carcinogen call (Species: RAT, Strain/Sex: F344/FEMALE, Route: ORAL, Dose: 0, 5000, 10000 PPM IN FEED FOR 103 WK (STUDY DURATION: 104 WK), Dose: 0, 5000, 10000 PPM IN FEED FOR 103 WK (STUDY DURATION: 104 WK)) was “inactive; negative”; the carcinogen call (Species: RAT, Strain/Sex: F344/MALE, Route: ORAL, Dose: 0, 5000, 10000 PPM IN FEED FOR 103 WK (STUDY DURATION: 104 WK), Dose: 0, 5000, 10000 PPM IN FEED FOR 103 WK (STUDY DURATION: 104 WK)) is “inactive; negative”.
